Experimental data from US12128129B2, “Lactobacillus plantarum for skin care” (SYMRISE AG, priority 2019, dated 2024).

Experiments:
HaCaT keratinocytes [1] = test: IL-8 release after IL-1alpha stimulation of pre-treated keratinocytes (ELISA); assay type: cell-based, human; settings: 48 h pre-treatment, then 30 ng/mL IL-1alpha for 8 h
Procedure: Anti-Inflammatory Effects of Lactobacillus plantarum HEAL 19 and HEAL 99 HaCaT keratinocytes were cultivated in 96-well plates using RPMI-A, medium sterile filtered with L-Glutamine, Capricorn, supplemented with 10% fetal calf serum (FCS), Capricorn. The plates were incubated at 37° C. and 5% CO2. After 24 hours starvation with cell culture medium (RPMI, 1% FCS) the cells were washed once. The anti-inflammatory substances/inactivated bacteria suspensions were suspended in starvation medium, applied and incubated for 24/48 h with parameters described above. […] To remove bacterial cells after pre-incubation all wells were washed with cell culture medium three times. IL-1alpha, Gibco, life technologies was dissolved in H2Odest, diluted in starvation medium and pipetted to wells, preferably at a concentration of 30 ng/mL. Alternatively, a heat inactivated Staphylococcus aureus (DSM799) suspension was used as pro-inflammatory agent in a concentration of 0.1 mg/mL-1 mg/mL dry mass. After 8 h incubation the supernatants were separated. All samples were stored at −80° C. until further analyses. IL-8 concentrations were measured with Human CXCL8/IL-8, DuoSet ELISA, Development Systems, R&D Systems. The experimental procedure was performed as described in the provided protocol. After calculating means of the duplicate/triplicate values and subtraction of the average zero standard optical density the calculation was done using four parameter logistic curve-fit for creating standard curves.

[2] = system: S. aureus (DSM799/ATCC6538); test: Inhibition of Staphylococcus aureus growth (growth curves, OD 620 nm); assay type: cell-based; settings: 0.1 and/or 0.05%, 16 h incubation
Procedure: Antimicrobial Effects of the Lactobacillus Strains Growth curves of various bacteria were measured photometrically at 620 nm. Inhibition of Staphylococcus aureus: 96-well MTP were prepared according to DIN58940-8 with autoclaved CASO medium (MERCK 1.05459) and test substances dissolved in DMSO or distilled water. The relevant wells were inoculated with S. aureus (DSM799/ATCC6538) using stock cultures maintained in 10% glycerin at −20° C. An inoculum of 1-6×10^6 cfu was added per well. Test substances were analyzed using three or four replicate wells during incubation at 37° C. for 16 hours. Growth curves were determined in each well via absorption at 620 nm using a Sunrise Photometer (Tecan, Austria) and Magellan Software. A concentration of 125 ppm farnesol and 4 ppm triclosan was used as positive control for growth inhibition, both pre-dissolved in DMSO (Merck 802912). For calculation, averages of detected absorptions were calculated and normalized with blank values. These OD values were plotted in function of time for graphical presentation.

[3] = system: HEPKp 3 dimensional skin models; test: Induction of hyaluronic acid in HEPKp 3D skin models (ELISA); assay type: cell-based, human; settings: 0.005% in cell culture medium, 8 days treatment
Procedure: Induction of Hyaluronic Acid Human epidermal keratinocyte progenitors (HEPKp) generated 3d human skin models were cultivated and systemically treated with test substances. Briefly, defined concentrations of test substances were added to cell culture medium and each skin model was treated in cell culture dishes for up to 9 days at 37° C. and 5% CO2. After the treatment, collected supernatants were stored at −80° C. until further analyses. Viability of the cells was controlled by MTT standard method. Hyaluronic acid concentrations were measured by TECOmedical hyaluronic acid plus ELISA. The experimental procedure was performed as described in the provided protocol.

HaCaT keratinocytes [4] = test: IL-8 release after S. aureus stimulation of pre-treated keratinocytes (ELISA); assay type: cell-based, human; settings: 0.25 mg/mL, 48 h pre-treatment
Procedure: Anti-Inflammatory Effects of Lactobacillus plantarum HEAL 19 and HEAL 99 HaCaT keratinocytes were cultivated in 96-well plates using RPMI-A, medium sterile filtered with L-Glutamine, Capricorn, supplemented with 10% fetal calf serum (FCS), Capricorn. The plates were incubated at 37° C. and 5% CO2. After 24 hours starvation with cell culture medium (RPMI, 1% FCS) the cells were washed once. The anti-inflammatory substances/inactivated bacteria suspensions were suspended in starvation medium, applied and incubated for 24/48 h with parameters described above. Dexamethasone in a concentration of 10 μM was used as positive control. To remove bacterial cells after pre-incubation all wells were washed with cell culture medium three times. IL-1alpha, Gibco, life technologies was dissolved in H2Odest, diluted in starvation medium and pipetted to wells, preferably at a concentration of 30 ng/mL. Alternatively, a heat inactivated Staphylococcus aureus (DSM799) suspension was used as pro-inflammatory agent in a concentration of 0.1 mg/mL-1 mg/mL dry mass. After 8 h incubation the supernatants were separated. All samples were stored at −80° C. until further analyses. IL-8 concentrations were measured with Human CXCL8/IL-8, DuoSet ELISA, Development Systems, R&D Systems. The experimental procedure was performed as described in the provided protocol. […]

HaCaT keratinocytes [5] = test: AMP gene expression in keratinocytes grown as mono-layer (real time PCR, TaqMan array); assay type: cell-based, human; settings: for induction of β-Defensin 3, calculated RQ-value: RQ >2 = relevant induction
Procedure: Effects of Lactobacillus Strains on AMP Gene Expression in Keratinocytes Grown as Mono-Layer
AMP inductions were measured with real time PCR analysis using Taq-Man® Array fast 96-well plates.
HaCaT keratinocytes were cultivated in EpiLife medium, cascade Biologics, Gibco, incl. HKGS, Gibco, life technologies. Test substances were diluted in equal medium and added in a volume of 2 mL per well on 6-well plates. All samples are tested on 100% confluent cells incubated at 37° C., 5% CO2. After 24 h incubation time all samples were removed and cells washed twice with Dulbecco's Phosphate Buffered Saline with Ca and Mg, Capricorn. RNA isolation was performed using RNeasy® Mini Kit, Qiagen. The procedure has been done as describes in the RNeasy Mini Handbook.
Cells were lysed and precipitated with ethanol, the homogenate was washed three times using the spin column and the mRNA was eluated with purified water. Depending on the sample the procedure was slightly adjusted.
RNA concentration was measured using μCuvetteG 1.0 and BioPhotometer, Eppendorf by measuring the absorption at 260 nm. Control values, like E260/280 or E260/230 were calculated simultaneously. Transcription was done with a minimum of 0.5-1 μg RNA per sample.
Reverse transcription was done using high capacity RNA-to-cDNA Kit, Applied Biosystems. The procedure was based on the provided protocol. All samples were incubated in a PCR Thermocycler, Biometra running 60 min at 37° C. for reverse transcription, followed by 5 min at 95° C. (enzyme inactivation) and holding temperature at 4° C. in reaction room.
Quantitative Real-Time PCR was done using StepOne Plus Fast Real Time PCR Instrument, Applied Biosystems. Initial steps of the RT-PCR included a first heating phase holding for 20 s at 95° C., followed by 40 cycles of cDNA denaturation for 3 s at 95° C. and annealing/elongation at 60° C. for 30 s.
Analysis was done by 2-ACT Method—in detail: • 1. Standardization of Ct values with reference-gen (HPRT) ΔCTvaluegene=CTvaluegene−CTvalueReferencegene (HPRT) • 2. Subtraction of ACT-value of control sample (untreated) and ACT-value (treated) ΔΔCTvaluegene=ΔCTvaluetreated−ΔCTvaluecontrol • 3. Calculation of RQ-Ratio (relative quantification-value) RQ−value=2^−ΔΔCT
A RQ-Value of >2 was defined as relevant induction of a gene.

[6] = system: HEPKp 3 dimensional skin models; test: Filaggrin release from HEPKp 3D skin models (ELISA); assay type: cell-based, human; settings: 0.05%, after 8 days, vs medium control
Text: Induction of Moisturizing Factor Filaggrin in 3D Skin Models Three dimensional skin models derived from human epidermal keratinocyte progenitors (HEPKp) and were systemically treated with test substances in CnT-PR-3D medium for 4 to 9 days. The filaggrin release was detected in the media by ELISA, Enzyme-linked Immunosorbent Assay Kit for filaggrin, Cloud-Clone Corp.

[7] = system: ex vivo human skin models; test: IL-8 release of ex vivo human skin models after diesel particulate 1650b; assay type: cell-based; settings: topical cosmetic formulation containing L. plantarum HEAL 19, stimulation with diesel particulate (1650b)
Procedure: Ex Vivo Studies Ex vivo trials were done by Cutech Srl, Italy. Effects of described Lactobacillus strains on various parameters were analyzed in ex vivo skin models. Human skin from abdominal plastic surgery was used. Applications of heat inactivated bacteria suspensions were done systemically or topically, in formulation or solved in cell culture medium Tape stripping may be used. Concentrations and incubation times may vary. All data were processed in terms of mean, standard deviation and standard error of mean (SEM) for each treatment. Anti-Inflammatory Effects Above described ex vivo human skin models have been used to verify the anti-inflammatory potential of the L. plantarum strains. The models were treatment with a L. plantarum HEAL 19 cosmetic emulsion followed by the application of the external noxious agent and pollutant 1650b, simulating air pollution. At a selected endpoint, the organ cell culture medium has been withdrawn from wells and analyzed for IL-8 using Deluxe set Human IL-8 of Biolegend®, Inc.

ex vivo skin models = test: Skin barrier integrity (Rhodamine B) ex vivo after diesel particulate 1650b; assay type: cell-based, human; settings: L. plantarum HEAL 19 formulation vs placebo, stimulation with diesel particulate (1650b)
Procedure: Ex vivo trials were done by Cutech Srl, Italy. Effects of described Lactobacillus strains on various parameters were analyzed in ex vivo skin models. Human skin from abdominal plastic surgery was used. Applications of heat inactivated bacteria suspensions were done systemically or topically, in formulation or solved in cell culture medium Tape stripping may be used. Concentrations and incubation times may vary. Skin Barrier Integrity (Rhodamine B) Ex vivo skin models have been treated topically with the L. plantarum strains before the application of the diesel particulate (i.e. 1650b). All skin samples have been incubated at 35° C., 5% CO2 and environmental humidity. At the end of the experimental phase the skin samples have been harvested stained with Rhodaminde B, cryo-fixed and cut at the cryostat for consequent image acquisition and analysis. The analysis of Rhodamine B fluorescence has been performed within two sections of the epidermis area for each skin model. Images have been analyzed by evaluating the fluorescence through Image-J application (NIH, USA).

[8] = system: 3D epidermis model system for dry skin; test: Barrier improving efficacy on SDS damaged 3D skin models for dry skin (TEM of intercellular lipid lamellae); assay type: cell-based; settings: 0.5% in a skin care formulation, topical, after SDS treatment
Procedure: Barrier Improving Efficacy on SDS Damaged 3D Skin Models for Dry Skin
For this purpose an in vitro study was performed on a 3D epidermis model system for dry skin. […] Disturbance of the epidermal barrier was measured as loss of intercellular lipid lamellae. The skin repair performance was determined by transmission electron microscopy (TEM) after treatment with L. plantarum HEAL 19 formulated in a cosmetic emulsion or placebo emulsion and then further cultivated to observe reformation of intercellular lipid lamellae.

[9] = system: ex vivo human skin models; test: Epidermal filaggrin, involucrin and cytokeratin 14 immunostaining ex vivo; assay type: cell-based; settings: various concentrations, vs vehicle (DMSO)
Procedure: Ex Vivo Studies Ex vivo trials were done by Cutech Srl, Italy. Effects of described Lactobacillus strains on various parameters were analyzed in ex vivo skin models. Human skin from abdominal plastic surgery was used. Applications of heat inactivated bacteria suspensions were done systemically or topically, in formulation or solved in cell culture medium Tape stripping may be used. Concentrations and incubation times may vary. All data were processed in terms of mean, standard deviation and standard error of mean (SEM) for each treatment. Epidermal Filaggrin, Involucrin and Cytokeratin 14 For analyses, the models were immune-stained with the selected antibody filaggrin rabbit polyclonal [H-300], involucrin mouse monoclonal (SY5) and/or cytokeratin 14 (CK14) rabbit monoclonal (EPR17350). The amount of the antigen present in each slide was evaluated by estimating the intensity and the distribution of red dye within the epidermis. The obtained data were normalized for the length of the basal lamina.

[10] = 0.05%, 24 h, gene arrays, induction defined as RQ-value >2
[11] = 0.1 and 0.05% tested, 24 h treatment, HaCaT

Molecule: C[C@@H]1C[C@H]2[C@@H]3CCC4=CC(=O)C=C[C@]4(C)[C@@]3(F)[C@@H](O)C[C@]2(C)[C@@]1(O)C(=O)CO [dexamethasone, reference compound]
- IL-8 release reduced to, compared to not pre-treated IL-1alpha control (HaCaT keratinocytes [1]; 30 μM, positive control): 20.4%

Molecule: Lactobacillus plantarum HEAL 19 (DSM 15313) [L. plantarum HEAL 19]
- growth of S. aureus (optical density) [2]: growth inhibition effects
- hyaluronic acid release compared to the medium control [3]: 145%
- IL-8 concentration in the medium reduced to, compared to only S. aureus stimulated control (HaCaT keratinocytes [4]): 31%
- induction of β-Defensin 3, calculated RQ-value (HaCaT keratinocytes [5]; 0.0125% L. plantarum HEAL 19, 24 h, HaCaT): 2.3
- gene expression of Calprotectin (HaCaT keratinocytes [5]; [10]): induced
- gene expression of Lactotransferrin (HaCaT keratinocytes [5]; [10]): Significantly induced
- gene expression of Peptidase inhibitor 3 (HaCaT keratinocytes [5]; [10]): Significantly induced
- gene expression of Psoriasin (HaCaT keratinocytes [5]; [10]): Significantly induced
- gene expression of RNase 7 (HaCaT keratinocytes [5]; [10]): Significantly induced
- gene expression of Secretory leukocyte peptidase inhibitor (HaCaT keratinocytes [5]; [10]): Significantly induced
- gene expression of β-Defensin 1 (HaCaT keratinocytes [5]; [10]): induced
- gene expression of β-Defensin 3 (HaCaT keratinocytes [5]; [10]): Significantly induced
- gene expression of β-Defensin 4 (HaCaT keratinocytes [5]; [10]): Significantly induced
- induction of β-Defensin 3, calculated RQ-value (HaCaT keratinocytes [5]; 0.1% L. plantarum HEAL 19, 24 h, HaCaT): 243.6
- IL-8 release reduced to, compared to not pre-treated IL-1alpha control (HaCaT keratinocytes [1]; 0.25 mg/mL): 5.1%
- filaggrin (FLG) release in medium [6]: 215%
- IL-8 detection in cell culture medium reduced to, compared to placebo control [7]: 75%
- rhodamine B penetration (skin barrier integrity) (ex vivo skin models): reduction of rhodamine B penetration
- repair performance (length of intercellular lipid lamellae) [8]: increased repair performance
- cytokeratin 14 (CK14) production ([9]; topical treatment): increased
- involucrin production ([9]; topical treatment): increased
- filaggrin release/contents ex vivo [9]: concentration dependent induction

Molecule: Lactobacillus plantarum HEAL 99 (DSM 15316) [L. plantarum HEAL 99]
- hyaluronic acid release compared to the medium control [3]: 115%
- induction of AMP coding gene Peptidase inhibitor 3 (HaCaT keratinocytes [5]; [11]): induced concentration dependently
- induction of AMP coding gene Phospholipase A2 (HaCaT keratinocytes [5]; [11]): induced concentration dependently
- induction of AMP coding gene RNase 7 (HaCaT keratinocytes [5]; [11]): induced concentration dependently
- induction of AMP coding gene Secretory leukocyte peptidase inhibitor (HaCaT keratinocytes [5]; [11]): induced concentration dependently
- induction of AMP coding gene β-Defensin 3 (HaCaT keratinocytes [5]; [11]): induced concentration dependently
- IL-8 release reduced to, compared to not pre-treated IL-1alpha control (HaCaT keratinocytes [1]; 0.1 mg/mL): 12.6%
- filaggrin (FLG) release in medium [6]: 150%
